Measurements as given in patent publication US7960339B2, “Antimicrobial peptides” (Österreichische Akademie der Wissenschaften, priority 2006, dated 2011).
Read-outs that look alike come from different tables or passages of the source. Square brackets hold non-standard residues; d marks the D form. Ends that are not written are not given here. Peptide text beside a SMILES is read from it. * marks the point of attachment. Dicyclohexylacetyl = O=C(C(C1CCCCC1)C1CCCCC1)*; Butanoyl(2,2-Me2) = CCC(C)(C)C(=O)*; Octanoyl(6-Me) = CCC(C)CCCCC(=O)*; X1 = CCCCC(CC)C(=O)*

How the values were obtained:
C. neoformans ATCC 32045 = format: cell-based
Procedure: C. neoformans ATCC 32045 cultures were maintained on yeast medium (YM; Difco Laboratories, Detroit, Mich.) agar plates at 4° C. Prior to the assay, the cultures were grown on agar plates and incubated for 72 hrs at 26° C. Two colonies of these newly grown fungal cultures were then inoculated in 5 ml of 2×YM broth, vortexed, and diluted 10-fold in 2×YM broth, for an approximate final assay concentration of 1×105 to 5×10^5 CFU/ml. In 96-well tissue culture plates, fungal suspensions in 2×YM broth were added to the peptides dispensed at concentrations ranging from 1 mg/ml to 1 μg/ml derived from serial twofold dilutions in sterile water. The plates were then incubated for 72 hrs at 26° C. The relative percent growth of the fungi found for each test sample was determined by the optical density at 620 nm (OD620) by using a Titertek Multiskan Plus apparatus. […] The IC50 were calculated by using a sigmoidal curve-fitting software program (Graphpad Prism; ISI Software, San Diego, Calif.).

LPS Re595 = experiment: Local Shwartzmann reaction in rabbit (lipid A-induced hemorrhagic dermonecrosis); format: in vivo, New Zealand White rabbits; conditions: i.d. injection in shaved dorsal region; open necrosis observed after 72-96 hours; minimum 3 injections in minimum 3 rabbits
Procedure: (§1) The principle of lipid A-induced pro-inflammatory cytokine activity leading to hemorrhagic dermonecrosis (classical Shwartzmann reaction) was tested in rabbit, an animal model very close to humans in terms of sensitivity to LPS activity, and was compared to the inhibition of the lipid A-induced LAL enzymatic cascade activation leading to clot. Thereby, New Zealand White rabbits were injected in the shaved dorsal region with S. minnesota Re595 lipid A alone or with peptide 1:100 (w/w) (5 μg in 0.2 ml saline buffer; route i.d.). […] Polymyxin B (PmB) was used as a control.

LPS S. Minnesota Re595 = experiment: Endpoint LAL activity (Limulus gel-clotting test), inhibition of lipid A-induced LAL enzymatic cascade; format: biochemical; conditions: sensibility 0.125 EU/ml, peptide:LPS 100:1 (w/w), minimum of 6 tests in triplicate
Procedure: as §1

Compound	average IC50 (C. neoformans ATCC 32045; 50% growth inhibition, OD620, 72 hrs at 26° C., 2×YM broth) [µg/mL]	average MIC (C. neoformans ATCC 32045; lowest concentration that resulted in 2% growth, OD620, 72 hrs at 26° C., 2×YM broth) [µg/mL]	Local Shwartzmann reaction in rabbit peptide: LPS Re595 100:1 (w/w) (LPS Re595)	Endpoint LAL activity peptide: LPS Re595 100:1 (w/w) (LPS S. Minnesota Re595)	average IC50 (C. neoformans ATCC 32045; ATCC 32045, 72 h) [µg/mL]	average MIC (C. neoformans ATCC 32045; ATCC 32045, 72 h) [µg/mL]
CC[C@H](C)[C@H](NC(=O)[C@H](CC(N)=O)NC(=O)[C@H](CCCNC(=N)N)NC(=O)[C@H](CCC(N)=O)NC(=O)[C@H](Cc1c[nH]c2ccccc12)NC(=O)[C@@H](N)Cc1ccccc1)C(=O)N[C@@H](CCCNC(=N)N)C(=O)N[C@@H](CCCCN)C(=O)N[C@@H](Cc1c[nH]c2ccccc12)C(=O)N[C@@H](CCCNC(=N)N)C(N)=O [VS1-15, FWQRNIRKWR-NH2] (H-FWQRNIRKWR-NH2)	5	16	NEGATIVE	NEGATIVE		
KRWSWKK-NH2 [Peptide P1-63]			NEGATIVE	NEGATIVE		
RFWQRNIRIRR-NH2 [Peptide P2-18]			NEGATIVE	NEGATIVE		
FWQRNIRKVRRRI-NH2 [Peptide P1-12]			NEGATIVE	NEGATIVE		
CC[C@H](C)[C@@H]1NC(=O)[C@H](CCCNC(=N)N)NC(=O)[C@H]([C@@H](C)CC)NC(=O)[C@H](CCCNC(=N)N)NC(=O)[C@H](Cc2c[nH]c3ccccc23)NC(=O)[C@H](Cc2ccccc2)NC(=O)[C@H](CCCNC(=N)N)NC(=O)[C@H](CCCNC(=N)N)NC1=O [VF50, cyclo FWRIRIRR-NH2] (cyclo(FWRIRIRR))			NEGATIVE	NEGATIVE		
FwRNIRIRR-NH2 (F[dW]RNIRIRR-NH2; N-terminus assumed; SMILES CC[C@H](C)[C@H](NC(=O)[C@H](CCCNC(=N)N)NC(=O)[C@@H](NC(=O)[C@H](CC(N)=O)NC(=O)[C@H](CCCNC(=N)N)NC(=O)[C@@H](Cc1c[nH]c2ccccc12)NC(=O)[C@@H](N)Cc1ccccc1)[C@@H](C)CC)C(=O)N[C@@H](CCCNC(=N)N)C(=O)N[C@@H](CCCNC(=N)N)C(N)=O) [Peptide P2-11]			NEGATIVE	NEGATIVE		
RWQRNIRIRR-NH2 [Peptide P2-19]			NEGATIVE	NEGATIVE		
CC[C@H](C)[C@H](NC(=O)[C@H](CCCNC(=N)N)NC(=O)[C@@H](NC(=O)[C@H](CCCNC(=N)N)NC(=O)[C@@H](N)CCCNC(=N)N)[C@@H](C)CC)C(=O)N[C@@H](CC(N)=O)C(=O)N[C@@H](CCCNC(=N)N)C(=O)N[C@@H](CCC(N)=O)C(=O)N[C@@H](Cc1c[nH]c2ccccc12)C(=O)N[C@@H](Cc1ccccc1)C(N)=O [VS1-14, RRIRINRQWF-NH2] (H-RRIRINRQWF-NH2; N-terminus assumed)					12	32
CC[C@H](C)[C@H](NC(=O)[C@H](CCCNC(=N)N)NC(=O)[C@@H](NC(=O)[C@H](CCCNC(=N)N)NC(=O)[C@H](Cc1c[nH]c2ccccc12)NC(=O)[C@H](Cc1ccccc1)NC(=O)[C@@H]1CCCN1)[C@@H](C)CC)C(=O)N[C@@H](CCCNC(=N)N)C(=O)N[C@@H](CCCNC(=N)N)C(=O)N[C@@H](CC(=O)O)C(N)=O [VS1-23, PFWRIRIRRD-NH2] (H-PFWRIRIRRD-NH2; N-terminus assumed)					4	8
CC[C@H](C)[C@H](NC(=O)[C@H](CCCNC(=N)N)NC(=O)[C@H](CCCCN)NC(=O)[C@H](Cc1c[nH]c2ccccc12)NC(=O)[C@H](CCCNC(=N)N)NC(=O)C(C)(C)CC)C(=O)N[C@@H](CC(N)=O)C(=O)N[C@@H](CCCNC(=N)N)C(=O)N[C@@H](CCC(N)=O)C(=O)N[C@@H](Cc1c[nH]c2ccccc12)C(=O)N[C@@H](Cc1ccccc1)C(N)=O [VS1-47, 2,2-dimethylbutanoyl RWKRINRQWF-NH2] ({Butanoyl(2,2-Me2)}-RWKRINRQWF-NH2)					8	16
CC[C@H](C)[C@H](NC(=O)[C@H](CCCNC(=N)N)NC(=O)[C@@H](NC(=O)[C@H](CCCNC(=N)N)NC(=O)[C@H](Cc1c[nH]c2ccccc12)NC(=O)[C@H](Cc1ccccc1)NC(=O)C(C1CCCCC1)C1CCCCC1)[C@@H](C)CC)C(=O)N[C@@H](CCCNC(=N)N)C(=O)N[C@@H](CCCNC(=N)N)C(N)=O [VS1-59, dicyclohexylacetyl FWRIRIRR-NH2] (Dicyclohexylacetyl-FWRIRIRR-NH2)					14	62
CCC(C)CCCCC(=O)N[C@@H](Cc1ccccc1)C(=O)N[C@@H](Cc1c[nH]c2ccccc12)C(=O)N[C@@H](CCCNC(=N)N)C(=O)N[C@@H](CCCNC(=N)N)C(=O)N[C@@H](Cc1ccccc1)C(=O)N[C@@H](Cc1c[nH]c2ccccc12)C(=O)N[C@@H](CCCNC(=N)N)C(=O)N[C@@H](CCCNC(=N)N)C(N)=O (stereo partly drawn) [VS1-63, 6-methyloctanoyl FWRRFWRR-NH2] ({Octanoyl(6-Me)}-FWRRFWRR-NH2)					11	62
CC[C@H](C)[C@H](NC(=O)[C@H](CCC(N)=O)NC(=O)[C@H](CCCNC(=N)N)NC(=O)[C@H](CCCNC(=N)N)NC(=O)[C@H](Cc1c[nH]c2ccccc12)NC(=O)[C@H](Cc1ccccc1)NC(=O)[C@@H]1CCCN1)C(=O)N[C@@H](CCCNC(=N)N)C(=O)N[C@@H](CCCNC(=N)N)C(N)=O [VS1-26, PFWRRQIRR-NH2] (H-PFWRRQIRR-NH2; N-terminus assumed)					6	32
FWQRNYRKVR-NH2 [Peptide P1-39]			NEGATIVE	NEGATIVE		
CCCCC(CC)C(=O)N[C@@H](CCCNC(=N)N)C(=O)N[C@@H](Cc1c[nH]c2ccccc12)C(=O)N[C@@H](CCCCN)C(=O)N[C@@H](CCCNC(=N)N)C(=O)N[C@H](C(=O)N[C@@H](CC(N)=O)C(=O)N[C@@H](CCCNC(=N)N)C(=O)N[C@@H](CCC(N)=O)C(=O)N[C@@H](Cc1c[nH]c2ccccc12)C(=O)N[C@@H](Cc1ccccc1)C(N)=O)[C@@H](C)CC (stereo partly drawn) [VS1-46, 2-ethylhexanoyl RWKRINRQWF-NH2] (X1-RWKRINRQWF-NH2)					4	8
CCCCC(CC)C(=O)N[C@@H](Cc1ccccc1)C(=O)N[C@@H](Cc1c[nH]c2ccccc12)C(=O)N[C@@H](CCC(N)=O)C(=O)N[C@@H](CCCNC(=N)N)C(=O)N[C@@H](CC(N)=O)C(=O)N[C@H](C(=O)N[C@@H](CCCNC(=N)N)C(=O)N[C@@H](CCCCN)C(=O)N[C@@H](Cc1c[nH]c2ccccc12)C(=O)N[C@@H](CCCNC(=N)N)C(N)=O)[C@@H](C)CC (stereo partly drawn) [VS1-41, 2-ethylhexanoyl FWQRNIRKWR-NH2] (X1-FWQRNIRKWR-NH2)					4	8
CC[C@H](C)[C@H](NC(=O)[C@H](CCCNC(=N)N)NC(=O)[C@H](Cc1c[nH]c2ccccc12)NC(=O)[C@@H](N)Cc1ccccc1)C(=O)N[C@@H](CCCNC(=N)N)C(=O)N[C@@H](CCCCN)C(=O)N[C@@H](Cc1c[nH]c2ccccc12)C(=O)N[C@@H](CCCNC(=N)N)C(N)=O [VS1-21, FWRIRKWR-NH2] (H-FWRIRKWR-NH2; N-terminus assumed)					4	16
CCCCC(CC)C(=O)N1CCC[C@H]1C(=O)N[C@@H](Cc1ccccc1)C(=O)N[C@@H](Cc1c[nH]c2ccccc12)C(=O)N[C@@H](CCCNC(=N)N)C(=O)N[C@H](C(=O)N[C@@H](CCCNC(=N)N)C(=O)N[C@H](C(=O)N[C@@H](CCCNC(=N)N)C(=O)N[C@@H](CCCNC(=N)N)C(N)=O)[C@@H](C)CC)[C@@H](C)CC (stereo partly drawn) [VS1-51, 2-ethylhexanoyl PFWRIRIRR-NH2] (X1-PFWRIRIRR-NH2)					3	8
CC[C@H](C)[C@H](NC(=O)[C@H](CCCNC(=N)N)NC(=O)[C@H](CCCNC(=N)N)NC(=O)[C@H](CCCNC(=N)N)NC(=O)[C@H](Cc1c[nH]c2ccccc12)NC(=O)[C@H](Cc1ccccc1)NC(=O)[C@@H]1CCCN1)C(=O)N[C@@H](CCCNC(=N)N)C(=O)N[C@@H](CCCNC(=N)N)C(N)=O [VS1-32, PFWRRRIRR-NH2] (H-PFWRRRIRR-NH2; N-terminus assumed)					9	32
N=C(N)NCCC[C@H](NC(=O)[C@H](CCCNC(=N)N)NC(=O)[C@H](Cc1c[nH]c2ccccc12)NC(=O)[C@H](Cc1ccccc1)NC(=O)[C@H](Cc1c[nH]c2ccccc12)NC(=O)[C@H](CCCNC(=N)N)NC(=O)[C@@H](N)CCCNC(=N)N)C(=O)O [VS1-39, RRWFWRR-OH] (H-RRWFWRR-OH; N-terminus assumed)					6	32
